Results reported in patent US8927738B2, “2-arylimidazole derivatives as PDE10A enzyme inhibitors” (H. Lundbeck A/S, priority 2009, dated 2015).
pIC50: −log10 of the molar value.

Molecular target: PDE10A enzyme (Homo sapiens (Human), UniProt Q9Y233)
Test: PDE10A inhibition assay
Format: biochemical
Settings: tritium labeled cAMP substrate 5 nM
Description: Active PDE10A enzyme is prepared in a number of ways for use in PDE assays (Loughney, K. et al. Gene 1999, 234, 109-117; Fujishige, K. et al. Eur J Biochem. 1999, 266, 1118-1127 and Soderling, S. et al. Proc. Natl. Acad. Sci. 1999, 96, 7071-7076). PDE10A can be expressed as full-length proteins or as truncated proteins, as long as they express the catalytic domain. PDE10A can be prepared in different cell types, for example insect cells or E. coli. An example of a method to obtain catalytically active PDE10A is as follows: The catalytic domain of human PDE10A (amino acids 440-779 from the sequence with accession number NP 006652) is amplified from total human brain total RNA by standard RT-PCR and is cloned into the BamH1 and Xho1 sites of the pET28a vector (Novagen). Expression in coli is performed according to standard protocols. Briefly, the expression plasmids are transformed into the BL21(DE3) E. coli strain, and 50 mL cultures inoculated with the cells allowed to grow to an OD600 of 0.4-0.6 before protein expression is induced with 0.5 mM IPTG. Following induction, the cells are incubated overnight at room temperature, after which the cells are collected by centrifugation. Cells expressing PDE10A are resuspended in 12 mL (50 mM TRIS-HCl-pH8.0, 1 mM MgCl2 and protease inhibitors). The cells are lysed by sonication, and after all cells are lysed, TritonX100 is added according to Novagen protocols.
A PDE10A assay may for example, be performed as follows: The assay is performed in 60 uL samples containing a fixed amount of the relevant PDE enzyme (sufficient to convert 20-25% of the cyclic nucleotide substrate), a buffer (50 mM HEPES7.6; 10 mM MgCl2; 0.02% Tween20), 0.1 mg/ml BSA, 225 pCi of ^3H-labelled cyclic nucleotide substrate, tritium labeled cAMP to a final concentration of 5 nM and varying amounts of inhibitors. Reactions are initiated by addition of the cyclic nucleotide substrate, and reactions are allowed to proceed for one hr at room temperature before being terminated through mixing with 15 uL 8 mg/mL yttrium silicate SPA beads (Amersham). The beads are allowed to settle for one hr in the dark before the plates are counted in a Wallac 1450 Microbeta counter. The measured signal can be converted to activity relative to an uninhibited control (100%) and IC50 values can be calculated using the Xlfit extension to EXCEL.

PDE10A enzyme, sequence (Q9Y233 716-1055): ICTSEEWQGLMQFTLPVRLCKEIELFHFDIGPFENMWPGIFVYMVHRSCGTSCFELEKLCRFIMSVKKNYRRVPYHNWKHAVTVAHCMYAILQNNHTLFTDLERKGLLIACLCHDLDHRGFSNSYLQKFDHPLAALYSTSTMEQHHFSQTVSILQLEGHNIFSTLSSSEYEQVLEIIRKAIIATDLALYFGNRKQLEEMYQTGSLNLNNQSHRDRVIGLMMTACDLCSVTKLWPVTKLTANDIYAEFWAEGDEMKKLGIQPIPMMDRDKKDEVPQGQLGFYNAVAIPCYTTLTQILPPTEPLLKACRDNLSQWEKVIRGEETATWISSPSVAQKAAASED

Compound	pIC50
Cc1ccc(C)n2nc(CCc3c[nH]c(-c4cccs4)n3)nc12 [5,8-Dimethyl-2-[2-(2-thiophen-2-yl-1H-imidazol-4-yl)-ethyl]-[1,2,4]triazolo[1,5-a]pyridine]	9.47
Cc1ncc(C)n2nc(CCc3c[nH]c(-c4ccc(F)cc4)n3)nc12 [2-{2-[2-(4-Fluoro-phenyl)-1H-imidazol-4-yl]-ethyl}-5,8-dimethyl-[1,2,4]triazolo[1,5-a]pyrazine]	7.92
Cc1ccc(C)n2nc(CCc3c[nH]c(-c4cscn4)n3)nc12 [5,8-Dimethyl-2-[2-(2-thiazol-4-yl-1H-imidazol-4-yl)-ethyl]-[1,2,4]triazolo[1,5-a]pyridine]	8.46
Cc1ccc(-c2nc(CCc3nc4c(C)ncc(C)n4n3)cn2C)o1 [5,8-Dimethyl-2-{2-[1-methyl-2-(5-methyl-furan-2-yl)-1H-imidazol-4-yl]-ethyl}-[1,2,4]triazolo[1,5-a]pyrazine]	8.46
Cc1ncc(C)n2nc(CCc3cn(C)c(-c4cncs4)n3)nc12 [5,8-Dimethyl-2-[2-(1-methyl-2-thiazol-5-yl-1H-imidazol-4-yl)-ethyl]-[1,2,4]triazolo[1,5-a]pyrazine]	7.66
Cc1ncc(C)n2nc(CCc3c[nH]c(-c4cccs4)n3)nc12 [5,8-Dimethyl-2-[2-(2-thiophen-2-yl-1H-imidazol-4-yl)-ethyl]-[1,2,4]triazolo[1,5-a]pyrazine]	9.40
Cc1ncc(C)n2nc(CCc3c[nH]c(-c4ccoc4)n3)nc12 [2-[2-(2-Furan-3-yl-1H-imidazol-4-yl)-ethyl]-5,8-dimethyl-[1,2,4]triazolo[1,5-a]pyrazine]	9.57
Cc1ccc(C)n2nc(CCc3c[nH]c(-c4ccco4)n3)nc12 [2-[2-(2-Furan-2-yl-1H-imidazol-4-yl)-ethyl]-5,8-dimethyl-[1,2,4]triazolo[1,5-a]pyridine]	9.21
Cc1ncc(C)n2nc(CCc3c[nH]c(-c4ccco4)n3)nc12 [2-[2-(2-Furan-2-yl-1H-imidazol-4-yl)-ethyl]-5,8-dimethyl-[1,2,4]triazolo[1,5-a]pyrazine]	9.01
Cc1ncc(C)n2nc(CCc3cn(C)c(-c4ccco4)n3)nc12 [2-[2-(2-Furan-2-yl-1-methyl-1H-imidazol-4-yl)-ethyl]-5,8-dimethyl-[1,2,4]triazolo[1,5-a]pyrazine]	8.96
Cc1ccc(C)n2nc(CCc3c[nH]c(-c4cncs4)n3)nc12 [5,8-Dimethyl-2-[2-(2-thiazol-5-yl-1H-imidazol-4-yl)-ethyl]-[1,2,4]triazolo[1,5-a]pyridine]	8.51
Cc1ncc(C)n2nc(CCc3c[nH]c(-c4nccs4)n3)nc12 [5,8-Dimethyl-2-[2-(2-thiazol-2-yl-1H-imidazol-4-yl)-ethyl]-[1,2,4]triazolo[1,5-a]pyrazine]	9.20
Cc1ncc(C)n2nc(CCc3cn(C)c(-c4nccs4)n3)nc12 [5,8-Dimethyl-2-[2-(1-methyl-2-thiazol-2-yl-1H-imidazol-4-yl)-ethyl]-[1,2,4]triazolo[1,5-a]pyrazine]	8.11

Results, then the molecule that gave them:

pIC50	Compound
7.10	COc1ccc(C)n2nc(CCc3cn(C)c(-c4ccccc4)n3)nc12 [8-Methoxy-5-methyl-2-[2-(1-methyl-2-phenyl-1H-imidazol-4-yl)-ethyl]-[1,2,4]triazolo[1,5-a]pyridine]
9.19	Cc1ccc(C)n2nc(CCc3c[nH]c(-c4ccoc4)n3)nc12 [2-[2-(2-Furan-3-yl-1H-imidazol-4-yl)-ethyl]-5,8-dimethyl-[1,2,4]triazolo[1,5-a]pyridine]
7.35	Cc1ncc(C)n2nc(CCc3cn(C)c(-c4ccccc4)n3)nc12 [5,8-Dimethyl-2-[2-(1-methyl-2-phenyl-1H-imidazol-4-yl)-ethyl]-[1,2,4]triazolo[1,5-a]pyrazine]
8.46	Cc1ncc(C)n2nc(CCc3c[nH]c(-c4cscn4)n3)nc12 [5,8-Dimethyl-2-[2-(2-thiazol-4-yl-1H-imidazol-4-yl)-ethyl]-[1,2,4]triazolo[1,5-a]pyrazine]
8.80	Cc1ccc(C)n2nc(CCc3c[nH]c(-c4nccs4)n3)nc12 [5,8-Dimethyl-2-[2-(2-thiazol-2-yl-1H-imidazol-4-yl)-ethyl]-[1,2,4]triazolo[1,5-a]pyridine]
9.00	Cc1ncc(C)n2nc(CCc3cn(C)c(-c4cccs4)n3)nc12 [5,8-Dimethyl-2-[2-(1-methyl-2-thiophen-2-yl-1H-imidazol-4-yl)-ethyl]-[1,2,4]triazolo[1,5-a]pyrazine]
9.12	Cc1ccc(C)n2nc(CCc3cn(C)c(-c4ccco4)n3)nc12 [2-[2-(2-Furan-2-yl-1-methyl-1H-imidazol-4-yl)-ethyl]-5,8-dimethyl-[1,2,4]triazolo[1,5-a]pyridine]
8.19	Cc1ncc(C)n2nc(CCc3c[nH]c(-c4cncs4)n3)nc12 [5,8-Dimethyl-2-[2-(2-thiazol-5-yl-1H-imidazol-4-yl)-ethyl]-[1,2,4]triazolo[1,5-a]pyrazine]
8.05	COc1ccc(C)n2nc(CCc3cn(C)c(-c4cccs4)n3)nc12 [8-Methoxy-5-methyl-2-[2-(1-methyl-2-thiophen-2-yl-1H-imidazol-4-yl)-ethyl]-[1,2,4]triazolo[1,5-a]pyridine]
8.38	Cc1ncc(C)n2nc(CCc3c[nH]c(-c4ccccc4)n3)nc12 [5,8-Dimethyl-2-[2-(2-phenyl-1H-imidazol-4-yl)-ethyl]-[1,2,4]triazolo[1,5-a]pyrazine]
8.23	COc1ccc(C)n2nc(CCc3c[nH]c(-c4ccccc4)n3)nc12 [8-Methoxy-5-methyl-2-[2-(2-phenyl-1H-imidazol-4-yl)-ethyl]-[1,2,4]triazolo[1,5-a]pyridine]
7.64	CCc1ccc(C)n2nc(CCc3cn(C)c(-c4ccccc4)n3)nc12 [8-Ethyl-5-methyl-2-[2-(1-methyl-2-phenyl-1H-imidazol-4-yl)-ethyl]-[1,2,4]triazolo[1,5-a]pyridine]
7.96	Cc1ncc(C)n2nc(CCc3cn(C)c(-c4cscn4)n3)nc12 [5,8-Dimethyl-2-[2-(1-methyl-2-thiazol-4-yl-1H-imidazol-4-yl)-ethyl]-[1,2,4]triazolo[1,5-a]pyrazine]

System: rats
Test: not given
Settings: papaverine alone; cited from earlier work

Compound	catalepsy caused on its own
COc1ccc(Cc2nccc3cc(OC)c(OC)cc23)cc1OC [Papaverine, papaverine]	did not cause catalepsy on its own

Same assay, conditions: with the D2 receptor antagonist haloperidol; cited from earlier work

Compound	effect on the cataleptic effect of haloperidol
COc1ccc(Cc2nccc3cc(OC)c(OC)cc23)cc1OC [Papaverine, papaverine]	potentiated the cataleptic effect

System: rats
Test: not given
Settings: cited from earlier work

Compound	hyperactivity induced by PCP
COc1ccc(Cc2nccc3cc(OC)c(OC)cc23)cc1OC [Papaverine, papaverine]	reduced hyperactivity

System: rats
Test: not given
Settings: cited from earlier work
Remark: another data set of the same source

Compound	reduction of amphetamine induced hyperactivity
COc1ccc(Cc2nccc3cc(OC)c(OC)cc23)cc1OC [Papaverine, papaverine]	insignificant
